Results reported in paper PMC5819316, “Structural and Biochemical Characterization of BdsA from Bacillus subtilis WU-S2B, a Key Enzyme in the “4S” Desulfurization Pathway” (Frontiers in Microbiology, 2018).

Key:
[1] = target: T1, BdsA (Bacillus subtilis, UniProt Q8GRC7); test: X-ray crystallography, […] A, crystal soaking; format: binding; settings: crystals soaked in 1 mM FMN for 30 min, pH 5.5; one FMN per subunit, active site
T1 construct: monomer 453 residues; homotetramer, ~220 kDa by gel filtration

[2] = target: the molecule itself; test: SEC; Superdex-200 gel filtration in 10 mM Tris-HCl (pH 8.0), 100 mM NaCl; oligomeric state in solution from the elution volume (~220 kDa)

## Cc1cc2nc3c(=O)[nH]c(=O)nc-3n(C[C@H](O)[C@H](O)[C@H](O)COP(=O)(O)O)c2cc1C [FMN]
[1]
  X-ray crystallography, 2.4 A, crystal soaking: The structure of the tetrameric BdsA–FMN complex contains four FMN molecules

B1: DBT sulfone monooxygenase BdsA from Bacillus subtilis WU-S2B (enzyme)
chain: MAEQRQLHLAGFFSAGNVTHAHGAWRHVGATNGFLTGEFYKQIARTLERGKFDLLFLPDGLAIEDSYGDNLETGVGLGGQGAVALEPTSVIATMAAVTQRLGLGATVSTTYYPPYHVARVFATLDNLSDGRISWNVVTSLNDSEARNFGVDEHLEHDIRYDRADEFLEAVKKLWSSWSEDALLLDKVGGRFADPKKVQYVNHRGRWLSVRGPLQVPRSRQGEPVILQAGLSPRGRRFAGRWAEAVFSVSPNLDIMRAVYQDIKAHVAAAGRDPEQTKVFTAVMPVLGETEQVARERLEYLNSLVHPEVGLSTLSSHSGLNLSKYPLDTKFSDIVADLGDRHVPTMLQMFSAVAGGGADLTLAELGRRYGTNVGFVPQWAGTAEQIADQLISHFEAGAADGFIISPAYLPGIYEEFVDQVVPLLQQRGVFRTEYEGTTLREHLGLAHPEVGSIR
notes: BdsA (DBT sulfone monooxygenase), Bacillus subtilis WU-S2B; synthesized bdsA gene cloned into the NdeI and XhoI sites of pET-15b; each monomer is composed of 453 amino acids; in the crystal the N-terminus to Gln4 and Ser451 to the C-terminus are not visible; No removal of the His-tag is described; also called apo-BdsA; dibenzothiophene sulfone monooxygenase; source: E. coli BL21 (DE3), purified …
[2]
  stoichiometry N: 4
